The text below walks through data of US8946212B2, “Annelated N-heterocyclic sulfonamides with oxadiazolone headgroup, processes for their preparation and their use as pharmaceuticals” (Sanofi-Aventis, priority 2008, dated 2015).

Like-named read-outs stand apart in the source and are kept apart here.

One assay has as its target T1, human PPARdelta (Homo sapiens, UniProt Q03181).
T1 construct: human PPARdelta receptor (amino acids S139-Y441); expressed in transfected cells; host or cells: HEK (human embryo kidney) cells, stably transfected; plasmid pcDNA3
T1 sequence (Q03181 139-441): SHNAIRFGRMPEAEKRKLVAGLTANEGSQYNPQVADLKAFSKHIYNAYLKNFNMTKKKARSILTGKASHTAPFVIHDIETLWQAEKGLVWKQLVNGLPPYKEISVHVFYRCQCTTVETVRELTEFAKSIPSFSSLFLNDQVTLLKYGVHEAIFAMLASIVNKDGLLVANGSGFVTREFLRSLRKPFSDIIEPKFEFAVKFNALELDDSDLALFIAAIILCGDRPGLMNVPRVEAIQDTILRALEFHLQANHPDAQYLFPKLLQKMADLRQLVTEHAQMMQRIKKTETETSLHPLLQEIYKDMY
Kind of assay: Cellular PPARdelta assay (HEK reporter cell line, luciferase). It counts as cell-based. The note with it: PPARdelta reporter cell line (HEK, GR-GAL4-humanPPARdelta-LBD). How it is done: The potency of substances which bind to human PPARdelta and activate it in an agonistic manner is analyzed using a stably transfected HEK cell line (HEK=human embryo kidney) which is referred to here as PPARdelta reporter cell line. In analogy to the assay described for PPARalpha, the PPARdelta reporter cell line also contains two genetic elements, a luciferase reporter element (pdeltaM-GAL4-Luc-Zeo) and a PPARdelta fusion protein (GR-GAL4-humanPPARdelta-LBD) which mediates expression of the luciferase reporter element depending on a PPARdelta ligand. The stably and constitutively expressed fusion protein GR-GAL4-humanPPARdelta-LBD binds in the cell nucleus of the PPARdelta reporter cell line via the GAL4 protein portion to the GAL4 DNA binding motifs 5″-upstream of the luciferase reporter element which is stably integrated in the genome of the cell line. There is only little expression of the luciferase reporter gene in the absence of a PPARdelta ligand if fatty acid-depleted fetal calf serum (cs-FCS) is used in the assay. PPARdelta ligands bind and activate the PPARdelta fusion protein and thereby stimulate expression of the luciferase reporter gene. The luciferase which is formed can be detected by means of chemiluminescence via an appropriate substrate.
The production of the stable PPARdelta reporter cell line is based on a stable HEK-cell clone which was stably transfected with a luciferase reporter element. This step was already described above in the section “construction of the PPARalpha reporter cell line”. In a second step, the PPARdelta fusion protein (GR-GAL4-humanPPARdelta-LBD was stably introduced into this cell clone. For this purpose, the cDNA coding for the N-terminal 76 amino acids of the glucocorticoid receptor (Accession # P4150) was linked to the cDNA section coding for amino acids 1-147 of the yeast transcription factor GAL4 (Accession #P04386). The cDNA of the ligand-binding domain of the human PPARdelta receptor (amino acids S139-Y441; Accession # L07592) was cloned in at the 3′-end of this GR-GAL4 construct. The fusion construct prepared in this way (GR-GAL4-humanPPARdelta-LBD) was recloned into the plasmid pcDNA3 (Invitrogen) in order to enable constitutive expression by the cytomegalovirus promoter. This plasmid was linearized with a restriction endonuclease and stably transfected into the previously described cell clone containing the luciferase reporter element. The resulting PPARdelta reporter cell line which contains a luciferase reporter element and constitutively expresses the PPARdelta fusion protein (GR-GAL4-human PPARdelta-LBD) was isolated by selection with zeocin (0.5 mg/ml) and G418 (0.5 mg/ml).
The activity of PPARdelta agonists is determined in a 3-day assay in exact analogy to the procedure already described for the PPARalpha reporter cell line except that the PPARdelta reporter cell line and a specific PPARdelta agonist was used as a standard to control test efficacy.

A further assay deals with T2, human PPARalpha (Homo sapiens, UniProt Q07869).
T2 construct: human PPARalpha receptor (amino acids S167-Y468); expressed in transfected cells; host or cells: HEK (human embryo kidney) cells, stably transfected; plasmid pcDNA3
T2 sequence (Q07869 167-468): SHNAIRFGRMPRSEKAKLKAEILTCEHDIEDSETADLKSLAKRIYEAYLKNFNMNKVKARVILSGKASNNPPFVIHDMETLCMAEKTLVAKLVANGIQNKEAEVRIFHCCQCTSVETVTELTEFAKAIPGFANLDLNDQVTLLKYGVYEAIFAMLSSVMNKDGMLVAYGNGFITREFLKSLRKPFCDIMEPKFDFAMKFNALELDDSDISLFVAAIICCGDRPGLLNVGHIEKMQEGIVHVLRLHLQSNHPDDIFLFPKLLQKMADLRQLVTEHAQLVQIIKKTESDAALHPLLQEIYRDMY
Nature of the assay: Cellular PPARalpha assay (HEK reporter cell line, luciferase). The note with it: PPARalpha reporter cell line (HEK, GR-GAL4-humanPPARalpha-LBD). Type of assay: cell-based. As for the experimental part: The potency of substances which bind to human PPARalpha and activate it in an agonistic manner is analyzed using a stably transfected HEK cell line (HEK=human embryo kidney) which is referred to here as PPARalpha reporter cell line. It contains two genetic elements, a luciferase reporter element (pdeltaM-GAL4-Luc-Zeo) and a PPARalpha fusion protein (GR-GAL4-humanPPARalpha-LBD) which mediates expression of the luciferase reporter element depending on a PPARalpha ligand. The stably and constitutively expressed fusion protein GR-GAL4-humanPPARalpha-LBD binds in the cell nucleus of the PPARalpha reporter cell line via the GAL4 protein portion to the GAL4 DNA binding motifs 5′-upstream of the luciferase reporter element which is stably integrated in the genome of the cell line. There is only weak expression of the luciferase reporter gene in the absence of a PPARalpha ligand if fatty acid-depleted fetal calf serum (cs-FCS) is used in the assay. PPARalpha ligands bind and activate the PPARalpha fusion protein and thereby stimulate the expression of the luciferase reporter gene. The luciferase which is formed can be detected by means of chemiluminescence via an appropriate substrate.
The PPARalpha reporter cell line was prepared in two stages. […]
The activity of PPARalpha agonists is determined in a 3-day assay which is described below: […]

The conditions of assay [1]: diabetic animal model; cited from earlier work.
The conditions of assay [2]: two weeks clinical trials in healthy volunteers; cited from earlier work.
For assay [3] the following is noted: rhesus monkeys; cited from earlier work.
The conditions of assay [4]: cynomolgus monkeys; cited from earlier work.
The conditions of assay [5]: obese, insulin resistant rhesus monkeys, cited from earlier work.

Compound “3-{2-Chloro-4-[4,4-dimethyl-6-(4-trifluoromethyl-phenyl)-3,4-dihydro-2H-quinolin-1-yl]-phenyl}-4H-[1,2,4]oxadiazol-5-one [Example 3]” returned an EC50 on human PPARdelta of 3.3 nM. In other words, the single-digit nanomolar range. `CC1(C)Cc2cc(-c3ccc(C(F)(F)F)cc3)ccc2N(c2ccc(-c3noc(=O)[nH]3)c(Cl)c2)C1` [Example 5, 3-{2-Chloro-4-[3,3-dimethyl-6-(4-trifluoromethyl-phenyl)-3,4-dihydro-2H-quinolin-1-yl]-phenyl}-4H-[1,2,4]oxadiazol-5-one]: at human PPARdelta, a half-maximal effect (EC50) was put at 1.9 nM. With `O=c1[nH]c(-c2ccc(S(=O)(=O)N3CCCc4nc(-c5ccc(C(F)(F)F)cc5)ccc43)cc2Cl)no1` [Example 13, 3-{2-Chloro-4-[6-(4-trifluoromethyl-phenyl)-3,4-dihydro-2H-[1,5]naphthyridine-1-sulfonyl]-phenyl}-4H-[1,2,4]oxadiazol-5-one], the 50% effective concentration (EC50) at human PPARalpha worked out at 505 nM; on human PPARdelta, 0.4 nM.

With “3-{4-[6-(4-Trifluoromethyl-phenyl)-3,4-dihydro-2H-quinolin-1-yl]-phenyl}-4H-[1,2,4]oxadiazol-5-one [Example 1]”, at human PPARdelta, the EC50 came out at 2.3 nM.

With “3-{2-Chloro-4-[7-(4-trifluoromethyl-phenyl)-2,3-dihydro-pyrido[3,2-b][1,4]oxazin-4-yl]-phenyl}-4H-[1,2,4]oxadiazol-5-one [Example 8]”, at human PPARdelta, the EC50 amounted to 55 nM. This EC50 is about 24-fold higher than that of the compound before. Consider `CCCc1c(OCCCOc2ccc(OCC(=O)O)cc2)ccc(C(C)=O)c1O` [Example L-165041], for which the plasma cholesterol result in assay [1] was “raises”. On to `CCCc1c(OCCCSc2nnc(SCC(=O)O)s2)ccc(C(C)=O)c1O` [YM-16638], for which the values for the plasma lipids result in assay [2], in assay [3] and in assay [4] were “acts in a similar manner”, “significantly lowers” and “significantly lowers”, respectively. Take `Cc1cc(SCc2sc(-c3ccc(C(F)(F)F)cc3)nc2C)ccc1OCC(=O)O` [GW501516]: in assay [5] (plasma), the insulin levels entry is “decreases” and the triglycerides entry was “decreases”. Moreover, in assay [5], the HDL-cholesterol result is recorded as “raises” and the “plasma LDL-cholesterol” value was “decreases”. At human PPARdelta, `O=c1[nH]c(-c2ccc(S(=O)(=O)N3CCNCc4cc(-c5ccc(C(F)(F)F)cc5)ccc43)cc2Cl)no1` [Example 12, 3-{2-Chloro-4-[7-(4-trifluoromethyl-phenyl)-2,3,4,5-tetrahydro-benzo[e][1,4]diazepine-1-sulfonyl]-phenyl}-4H-[1,2,4]oxadiazol-5-one] came in with an EC50 of 530 nM.
